In ChEMBL document CHEMBL1201862, “PubChem BioAssay data set” (2004):
Activity calls are given as the source filed them.

What was measured:
[1] = molecular target: Ras and Rab interactor 1/Tyrosine-protein kinase ABL1 (Homo sapiens, UniProt P00519+Q13671); type: functional;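 also: biochemical TR-FRET dose-response test measuring inhibition of binding between Rin1 and Abl proteins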
[2] = molecular target: Eukaryotic translation initiation factor 4E (Mus musculus, UniProt P63073); experiment: eIF4E–eIF4G protein interaction inhibitors, dose response, biochemical, TR-FRET (AID 855); type: functional;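 also: potency for disrupting eIF4E binding to eIF4GI seen as loss of FRET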
[3] = AlphaScreen signal interference compounds, dose response, artefact control for ARNT-TACC3 interaction inhibitor project, biochemical, luminescence, cherry-pick (AID 651705); type: functional;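 also: AlphaScreen bead proximity signal that flags compounds interfering with the detection technology; potency reflects signal decrease which marks the compound as an assay artifact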
Vero [4] = experiment: Vero cell cytotoxicity, cytotoxicity control for flavivirus capping enzyme inhibitors (AID 588742); type: functional; details: Chlorocebus sabaeus
[5] = molecular target: Induced myeloid leukemia cell differentiation protein Mcl-1 (Homo sapiens, UniProt Q07820); type: functional
Trypsin = Trypsin (Sus scrofa, UniProt P00761); experiment: porcine trypsin inhibitors, dose response, selectivity assay for Rce1 protease inhibitor project, biochemical, quenched peptide fluorescence, cherry-pick (AID 488789)
Protein skinhead-1 = molecular target: T1, Protein skinhead-1 (Caenorhabditis elegans, UniProt P34707); type: functional
T1 sequence (P34707 whole entry): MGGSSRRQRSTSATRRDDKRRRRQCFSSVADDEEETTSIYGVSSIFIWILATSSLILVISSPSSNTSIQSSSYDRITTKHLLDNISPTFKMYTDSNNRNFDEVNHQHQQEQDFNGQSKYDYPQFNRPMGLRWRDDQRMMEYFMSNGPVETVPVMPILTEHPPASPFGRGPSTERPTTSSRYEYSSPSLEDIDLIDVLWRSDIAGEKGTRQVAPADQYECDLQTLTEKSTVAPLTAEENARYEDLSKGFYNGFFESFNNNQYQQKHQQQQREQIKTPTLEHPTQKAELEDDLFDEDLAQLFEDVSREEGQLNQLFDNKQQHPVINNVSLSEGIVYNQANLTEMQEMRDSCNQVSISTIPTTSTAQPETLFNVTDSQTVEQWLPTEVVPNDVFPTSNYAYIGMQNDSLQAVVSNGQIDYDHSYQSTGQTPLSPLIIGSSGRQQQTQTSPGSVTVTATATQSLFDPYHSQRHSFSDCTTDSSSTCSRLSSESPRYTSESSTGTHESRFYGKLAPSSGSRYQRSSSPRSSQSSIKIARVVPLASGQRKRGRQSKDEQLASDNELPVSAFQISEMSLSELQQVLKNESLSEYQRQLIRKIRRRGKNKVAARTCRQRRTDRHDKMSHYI

[6] = molecular target: T2, Acyl-homoserine lactone acylase PvdQ (Pseudomonas aeruginosa (strain LESB58), UniProt Q9I194); experiment: P. aeruginosa PvdQ acylase inhibitors, dose response, biochemical, fluorescence, plate reader and imaging, cherry-picks (AID 493231)
T2 sequence (Q9I194 whole entry): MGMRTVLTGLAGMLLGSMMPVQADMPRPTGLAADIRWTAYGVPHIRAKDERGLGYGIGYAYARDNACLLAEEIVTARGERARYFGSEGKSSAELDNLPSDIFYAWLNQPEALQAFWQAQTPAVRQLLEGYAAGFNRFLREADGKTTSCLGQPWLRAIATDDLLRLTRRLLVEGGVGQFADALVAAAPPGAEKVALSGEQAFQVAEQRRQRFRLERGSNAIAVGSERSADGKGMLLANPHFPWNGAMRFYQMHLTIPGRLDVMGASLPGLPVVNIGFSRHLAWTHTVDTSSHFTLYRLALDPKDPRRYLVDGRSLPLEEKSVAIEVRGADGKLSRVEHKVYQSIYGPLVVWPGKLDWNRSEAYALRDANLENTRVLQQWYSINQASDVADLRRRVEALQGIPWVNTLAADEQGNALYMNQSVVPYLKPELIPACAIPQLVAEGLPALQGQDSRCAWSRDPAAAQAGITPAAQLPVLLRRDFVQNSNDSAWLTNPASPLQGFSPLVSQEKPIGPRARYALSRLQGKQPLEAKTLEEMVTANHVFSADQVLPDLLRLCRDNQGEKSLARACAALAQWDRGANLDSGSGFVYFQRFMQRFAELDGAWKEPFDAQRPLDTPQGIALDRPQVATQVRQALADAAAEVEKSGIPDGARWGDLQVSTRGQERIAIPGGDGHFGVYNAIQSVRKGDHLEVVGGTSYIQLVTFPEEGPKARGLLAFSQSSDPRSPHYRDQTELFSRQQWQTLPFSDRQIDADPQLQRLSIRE

HEK293 = experiment: inhibitors of LMP1-driven NF-kB reporter, dose response, cell-based, HEK293, luciferase, cherry-pick (AID 588343); type: functional; details: Homo sapiens
HeLa = experiment: HeLa cell cytotoxicity, dose response, cytotoxicity control, 48 h, plate reader, cherry-picks (AID 504942); type: functional, cell-based; details: Homo sapiens
[7] = molecular target: T3, Neuropeptides B/W receptor type 1 (Homo sapiens, UniProt P48145); experiment: GPR7 antagonist potency, late-stage follow-up, cell-based, fluorescence, dose response, set 5 (AID 588566); type: functional
T3 sequence (P48145 whole entry): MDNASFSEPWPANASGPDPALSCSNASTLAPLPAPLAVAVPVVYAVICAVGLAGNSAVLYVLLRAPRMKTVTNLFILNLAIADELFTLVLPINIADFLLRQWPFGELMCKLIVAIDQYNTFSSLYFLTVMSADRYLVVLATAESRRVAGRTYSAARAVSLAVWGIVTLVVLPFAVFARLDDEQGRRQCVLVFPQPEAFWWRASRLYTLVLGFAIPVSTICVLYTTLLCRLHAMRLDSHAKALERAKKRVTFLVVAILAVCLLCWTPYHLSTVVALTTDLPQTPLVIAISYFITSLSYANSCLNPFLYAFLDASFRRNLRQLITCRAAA

[8] = molecular target: T4, Melanin-concentrating hormone receptor 1 (Homo sapiens, UniProt Q99705); experiment: Late-stage fluorescence-based counterscreen for antagonists of the G-protein coupled receptor 7 (GPR7): cell-based dose response assay to identify antagonists of the melanin-concentrating hormone receptor 1 (MCHR1) Set 5.; type: functional
T4 sequence (Q99705 whole entry): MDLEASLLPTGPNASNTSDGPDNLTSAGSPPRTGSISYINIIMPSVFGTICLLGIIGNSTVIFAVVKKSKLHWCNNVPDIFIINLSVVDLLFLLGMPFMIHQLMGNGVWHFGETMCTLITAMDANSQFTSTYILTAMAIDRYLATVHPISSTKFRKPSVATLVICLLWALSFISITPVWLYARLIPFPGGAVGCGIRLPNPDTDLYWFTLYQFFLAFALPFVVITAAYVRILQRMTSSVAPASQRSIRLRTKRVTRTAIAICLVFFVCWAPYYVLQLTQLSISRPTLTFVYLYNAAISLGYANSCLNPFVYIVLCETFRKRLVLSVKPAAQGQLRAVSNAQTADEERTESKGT

[9] = molecular target: T4, Melanin-concentrating hormone receptor 1; experiment: Late-stage fluorescence-based counterscreen for antagonists of the G-protein coupled receptor 7 (GPR7): cell-based dose response assay to identify antagonists of the melanin-concentrating hormone receptor 1 (MCHR1) Set 6.; type: functional
[10] = molecular target: T3, Neuropeptides B/W receptor type 1; experiment: GPR7 antagonist potency, late-stage follow-up, cell-based, fluorescence, dose response, set 6 (AID 588583); type: functional
[11] = molecular target: Platelet-activating factor acetylhydrolase (Mus musculus, UniProt Q60963); experiment: Late stage assay provider results from the probe development effort to identify inhibitors of pPAFAH: fluorescence-based dose-response biochemical gel-based competitive Activity-Based Protein Profiling (ABPP) assay for SAR compounds.; type: functional
Interleukin-8 = Interleukin-8 (Homo sapiens, UniProt P10145); experiment: Dose Response confirmation of uHTS small molecule hits for cystic fibrosis induced NFkb Inhibitors in a PAF-induced IL8 counterscreen.; type: functional; details: read-out: IC50_Mean
[12] = molecular target: Mitochondrial peptide methionine sulfoxide reductase (Bos taurus, UniProt P54149); type: functional;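 also: absorbance read-out, biochemical high-throughput dose-response screen for MsrA inhibitors, confirmatory; recombinant bovine MsrA coupled to E. coli TrxB with NADPH and selenocystamine; potency is for inhibitors of MsrA activity on DMSO substrate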
[13] = cytotoxicity toward DRD oncogenic fibroblasts, dose response, cell-based, non-viral oncogenic, luminescence (AID 1934); type: functional; details: Homo sapiens
[14] = system: Streptococcus sp. 'group A'; experiment: growth inhibition of control SK(-) GAS strain, dose response, counter-screen for streptokinase expression inhibitor project, luminescence, kanamycin, BacTiterGlo, confirmation (AID 1900); type: functional, organism-based
Streptococcus = experiment: Group A Streptococcus viability loss, dose response, counter-screen for streptokinase expression inhibitor project, luminescence, BacTiterGlo (AID 1915); type: functional, organism-based;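 also: potency for reduction of bacterial viability or growth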
BJ [15] = experiment: cells; type: functional, cell-based; details: Homo sapiens
[16] = molecular target: T5, Polyadenylate-binding protein 1 (Homo sapiens, UniProt P11940); experiment: PABP1 MLLE–PAM2 interaction inhibitors, dose response, miRNA deadenylation inhibitor project, biochemical, fluorescence polarization, Cy5-PAM2 peptide, secondary (AID 602260); type: functional; details: read-out: IC50_Mean
T5 sequence (P11940 whole entry): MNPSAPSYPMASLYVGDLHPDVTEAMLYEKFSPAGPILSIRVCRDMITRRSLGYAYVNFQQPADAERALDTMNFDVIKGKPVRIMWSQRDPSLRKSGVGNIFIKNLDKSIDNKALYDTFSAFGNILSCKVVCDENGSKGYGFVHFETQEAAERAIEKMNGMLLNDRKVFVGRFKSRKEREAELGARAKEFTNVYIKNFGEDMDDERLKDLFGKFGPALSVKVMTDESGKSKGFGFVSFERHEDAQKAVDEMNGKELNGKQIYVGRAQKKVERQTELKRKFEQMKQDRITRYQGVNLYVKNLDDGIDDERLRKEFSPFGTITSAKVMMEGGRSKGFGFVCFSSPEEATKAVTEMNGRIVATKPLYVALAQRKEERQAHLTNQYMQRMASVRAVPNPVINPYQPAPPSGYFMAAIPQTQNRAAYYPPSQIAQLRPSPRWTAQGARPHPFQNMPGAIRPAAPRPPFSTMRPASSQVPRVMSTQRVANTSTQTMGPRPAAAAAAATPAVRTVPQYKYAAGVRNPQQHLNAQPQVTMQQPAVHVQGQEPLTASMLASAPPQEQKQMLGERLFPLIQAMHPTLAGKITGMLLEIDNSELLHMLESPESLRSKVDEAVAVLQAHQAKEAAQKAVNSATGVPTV

[17] = molecular target: T5, Polyadenylate-binding protein 1; experiment: PABP1 MLLE–PAM2 binding inhibitor potency, dose response, biochemical, fluorescence polarization, FITC-PAM2 peptide (AID 602259); type: functional; details: read-out: IC50_Mean
[18] = inhibitors of intracellular T. cruzi replication, confirmation, NIH3T3 host cells, beta-gal luminescence (AID 2044); type: functional, cell-based;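 also: intracellular parasites grown in NIH/3T3 mouse fibroblasts as host cells; luminescent beta-galactosidase reporter signal from transgenic T. cruzi replicating inside host cells; inhibitors lower the luminescence signal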
Nonstructural protein 1 = Nonstructural protein 1 (Influenza A virus, UniProt Q194T2); type: functional, Influenza A virus (A/California/07/2009(H1N1))
BJ [19] = experiment: cytotoxicity toward BJ-TERT-LT-ST fibroblasts, dose response, cell-based, RAS-independent, luminescence (AID 1935); type: functional; details: Homo sapiens;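 also: BJ fibroblasts immortalized with TERT plus LT and ST oncogenes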
[20] = cytotoxicity toward NIH3T3 fibroblasts, dose response, counter-screen, cell-based, ATP luminescence, mouse fibroblasts (AID 2010); type: functional;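 also: cells exposed to compound for about 90 hours before reading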
Vero [21] = experiment: cells; type: functional; details: Chlorocebus sabaeus
BJ [22] = experiment: cytotoxicity toward BJ-TERT fibroblasts, dose response, cell-based, RAS-independent, luminescence (AID 1933); type: functional; details: Homo sapiens
[23] = molecular target: SWI/SNF-related matrix-associated actin-dependent regulator of chromatin subfamily A member 2 (Homo sapiens, UniProt P51531); experiment: Luminescence-based cell-based high throughput dose response assay to identify activators of the function of SWI/SNF related, matrix associated, actin dependent regulator of chromatin, subfamily a, member 2 (SMARCA2, BRM).; type: functional
SWI/SNF-related matrix-associated actin-dependent regulator of chromatin subfamily A member 2, sequence (P51531 whole entry): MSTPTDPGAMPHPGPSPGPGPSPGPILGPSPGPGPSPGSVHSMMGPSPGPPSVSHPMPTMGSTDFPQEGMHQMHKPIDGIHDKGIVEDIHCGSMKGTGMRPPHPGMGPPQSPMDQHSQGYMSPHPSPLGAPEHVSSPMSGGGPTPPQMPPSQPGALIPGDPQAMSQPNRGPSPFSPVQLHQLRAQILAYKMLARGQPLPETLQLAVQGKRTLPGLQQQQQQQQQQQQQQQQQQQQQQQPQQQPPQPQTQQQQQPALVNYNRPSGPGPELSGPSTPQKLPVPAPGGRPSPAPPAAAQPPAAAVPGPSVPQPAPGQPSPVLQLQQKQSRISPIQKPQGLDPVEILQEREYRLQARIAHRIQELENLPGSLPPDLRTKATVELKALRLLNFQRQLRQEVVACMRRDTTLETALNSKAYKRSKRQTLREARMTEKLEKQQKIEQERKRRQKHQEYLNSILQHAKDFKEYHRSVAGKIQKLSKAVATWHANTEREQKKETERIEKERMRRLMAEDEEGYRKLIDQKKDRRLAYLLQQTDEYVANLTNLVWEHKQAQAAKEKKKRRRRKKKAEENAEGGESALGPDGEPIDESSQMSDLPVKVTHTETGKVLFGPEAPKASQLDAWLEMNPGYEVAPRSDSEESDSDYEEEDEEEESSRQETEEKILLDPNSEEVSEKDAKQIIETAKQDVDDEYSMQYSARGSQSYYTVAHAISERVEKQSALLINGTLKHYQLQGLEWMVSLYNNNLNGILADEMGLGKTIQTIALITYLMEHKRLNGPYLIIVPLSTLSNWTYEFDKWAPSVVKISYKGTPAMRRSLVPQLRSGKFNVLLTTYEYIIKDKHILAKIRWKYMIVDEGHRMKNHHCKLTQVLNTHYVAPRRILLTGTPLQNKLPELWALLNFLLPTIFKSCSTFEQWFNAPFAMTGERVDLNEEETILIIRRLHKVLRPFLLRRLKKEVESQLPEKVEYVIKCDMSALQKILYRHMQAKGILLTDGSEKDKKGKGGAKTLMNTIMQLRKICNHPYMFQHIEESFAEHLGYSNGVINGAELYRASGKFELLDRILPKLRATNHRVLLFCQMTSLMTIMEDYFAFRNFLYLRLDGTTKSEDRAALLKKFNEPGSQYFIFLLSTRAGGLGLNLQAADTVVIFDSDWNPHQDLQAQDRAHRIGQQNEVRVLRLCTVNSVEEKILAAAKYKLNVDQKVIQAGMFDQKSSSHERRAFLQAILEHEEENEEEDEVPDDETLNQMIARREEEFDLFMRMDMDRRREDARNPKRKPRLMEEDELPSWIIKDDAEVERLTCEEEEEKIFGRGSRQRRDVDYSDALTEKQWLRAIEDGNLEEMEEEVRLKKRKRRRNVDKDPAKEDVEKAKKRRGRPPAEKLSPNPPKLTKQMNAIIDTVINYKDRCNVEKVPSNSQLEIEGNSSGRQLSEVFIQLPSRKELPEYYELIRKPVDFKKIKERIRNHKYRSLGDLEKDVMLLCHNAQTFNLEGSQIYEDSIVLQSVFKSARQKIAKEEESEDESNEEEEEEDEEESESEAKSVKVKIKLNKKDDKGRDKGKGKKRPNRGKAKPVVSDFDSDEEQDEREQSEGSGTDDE

[24] = Counterscreen for activators of the function of SWI/SNF related, matrix associated, actin dependent regulator of chromatin, subfamily a, member 2 (SMARCA2, BRM): Luminescence-based cell-based high throughput dose response assay to identify non-selective compounds using the VP16 reporter assay.; type: functional
[25] = molecular target: DNA (cytosine-5)-methyltransferase 1 (Homo sapiens, UniProt P26358); experiment: DNMT1 methyltransferase inhibitors, confirmation, biochemical, fluorescent molecular beacon (AID 602386); type: functional
Cytochrome P450 3A4 = Cytochrome P450 3A4 (Homo sapiens, UniProt P08684); details: Potency;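 also: confirmatory qHTS run detecting inhibitors and substrates of CYP3A4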
Cytochrome P450 3A4, sequence (P08684 whole entry): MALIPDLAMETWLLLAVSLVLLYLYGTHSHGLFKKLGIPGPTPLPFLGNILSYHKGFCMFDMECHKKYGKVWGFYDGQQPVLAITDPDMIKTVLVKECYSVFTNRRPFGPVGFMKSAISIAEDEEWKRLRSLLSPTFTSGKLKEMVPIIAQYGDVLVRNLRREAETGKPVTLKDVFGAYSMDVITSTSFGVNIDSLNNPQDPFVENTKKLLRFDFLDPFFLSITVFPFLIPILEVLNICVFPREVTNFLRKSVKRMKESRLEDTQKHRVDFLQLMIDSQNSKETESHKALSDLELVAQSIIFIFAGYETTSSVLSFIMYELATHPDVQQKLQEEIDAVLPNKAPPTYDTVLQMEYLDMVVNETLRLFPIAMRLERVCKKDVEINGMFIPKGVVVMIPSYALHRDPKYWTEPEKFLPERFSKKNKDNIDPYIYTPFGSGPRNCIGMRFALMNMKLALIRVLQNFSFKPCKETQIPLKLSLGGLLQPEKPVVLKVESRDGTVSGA

Ras and Rab interactor 1/Tyrosine-protein kinase ABL1, sequence (P00519 whole entry): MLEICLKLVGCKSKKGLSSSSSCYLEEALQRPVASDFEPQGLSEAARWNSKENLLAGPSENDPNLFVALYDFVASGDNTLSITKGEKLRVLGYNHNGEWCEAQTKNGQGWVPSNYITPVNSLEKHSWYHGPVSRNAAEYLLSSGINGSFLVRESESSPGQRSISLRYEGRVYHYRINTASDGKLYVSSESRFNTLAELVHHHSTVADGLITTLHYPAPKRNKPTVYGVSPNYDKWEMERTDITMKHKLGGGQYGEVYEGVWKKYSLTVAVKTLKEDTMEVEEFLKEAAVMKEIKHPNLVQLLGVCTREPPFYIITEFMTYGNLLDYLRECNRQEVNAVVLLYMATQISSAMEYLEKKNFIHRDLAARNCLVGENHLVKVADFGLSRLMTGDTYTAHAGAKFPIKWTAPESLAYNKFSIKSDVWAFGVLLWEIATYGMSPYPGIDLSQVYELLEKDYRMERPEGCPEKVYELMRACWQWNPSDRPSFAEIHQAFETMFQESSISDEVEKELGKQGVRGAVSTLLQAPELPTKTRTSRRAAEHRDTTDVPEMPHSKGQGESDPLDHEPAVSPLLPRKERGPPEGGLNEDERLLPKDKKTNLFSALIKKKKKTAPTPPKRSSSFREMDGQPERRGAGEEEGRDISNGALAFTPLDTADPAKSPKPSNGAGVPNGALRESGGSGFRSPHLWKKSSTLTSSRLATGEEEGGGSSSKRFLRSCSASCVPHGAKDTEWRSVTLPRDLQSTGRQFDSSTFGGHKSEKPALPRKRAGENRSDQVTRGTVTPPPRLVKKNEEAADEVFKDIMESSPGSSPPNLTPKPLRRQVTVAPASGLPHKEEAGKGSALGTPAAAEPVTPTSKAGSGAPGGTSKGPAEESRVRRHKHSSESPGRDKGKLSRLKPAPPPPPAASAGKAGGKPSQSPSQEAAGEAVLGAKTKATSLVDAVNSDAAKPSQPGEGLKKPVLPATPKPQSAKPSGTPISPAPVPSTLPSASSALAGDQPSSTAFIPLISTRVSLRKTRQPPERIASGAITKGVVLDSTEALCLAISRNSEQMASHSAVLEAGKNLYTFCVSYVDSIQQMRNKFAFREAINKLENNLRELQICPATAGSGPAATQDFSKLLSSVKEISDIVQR
Ras and Rab interactor 1/Tyrosine-protein kinase ABL1, sequence (Q13671 whole entry): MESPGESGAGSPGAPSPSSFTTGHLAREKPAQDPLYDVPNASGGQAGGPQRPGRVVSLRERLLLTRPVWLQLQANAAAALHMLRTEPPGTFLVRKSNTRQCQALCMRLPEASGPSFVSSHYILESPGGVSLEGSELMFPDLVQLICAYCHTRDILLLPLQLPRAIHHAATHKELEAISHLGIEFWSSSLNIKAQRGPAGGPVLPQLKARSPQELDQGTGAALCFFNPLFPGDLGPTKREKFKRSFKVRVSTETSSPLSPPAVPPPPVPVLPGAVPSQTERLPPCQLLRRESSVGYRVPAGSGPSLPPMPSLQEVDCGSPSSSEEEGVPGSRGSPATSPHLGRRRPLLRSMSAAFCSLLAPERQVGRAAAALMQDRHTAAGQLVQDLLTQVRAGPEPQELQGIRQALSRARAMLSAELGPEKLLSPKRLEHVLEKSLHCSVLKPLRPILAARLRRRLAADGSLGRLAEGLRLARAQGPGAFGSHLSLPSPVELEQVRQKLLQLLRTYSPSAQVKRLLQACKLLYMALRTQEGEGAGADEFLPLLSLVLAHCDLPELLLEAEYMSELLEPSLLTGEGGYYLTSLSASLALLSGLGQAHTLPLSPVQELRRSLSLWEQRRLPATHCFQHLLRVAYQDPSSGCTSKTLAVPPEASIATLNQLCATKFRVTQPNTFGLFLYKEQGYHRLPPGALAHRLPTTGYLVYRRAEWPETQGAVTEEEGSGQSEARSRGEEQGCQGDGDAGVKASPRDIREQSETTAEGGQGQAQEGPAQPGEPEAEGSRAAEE

Compound: CCOC(=O)CCCCC(=O)c1[nH]c(O)nc1CN1CCOCC1
- IC50 [1]: 0.548 µM (active)

Compound: CC(C)(C)C1=Nn2c(nnc2-c2ccccn2)SC1
- IC50 [2]: > 64 µM (inactive)
- AC50 [3]: 107 µM (active)

Compound: CNc1ccc(Br)cc(C(=O)/C=C/c2ccc(OC)cc2OC)c1=O
- CC50 (Vero [4]): > 40 µM (active)
- IC50 [5]: 2.17 µM (active)

Compound: c1ccn2cc(-c3ccc4c(c3)OCCO4)nc2c1
- AC50 (Trypsin): 6.17 µM (active)
- IC50 (Protein skinhead-1): > 100 µM (inactive)
- AC50 [6]: 4.31 µM (active)
- AC50 (HEK293): 1.53 µM (active)
- AC50 (HeLa): 55.2 µM (active)

Compound: CCOC(=O)C(C#N)c1ccnn(Cc2cccc3ccccc23)c1=O (configuration not stated)
- IC50 [7]: 1.74 µM (active)
- IC50 [8]: 15 µM (inactive)

Compound: N#CC(c1ccccn1)c1c(Cl)cnn(Cc2cccc3ccccc23)c1=O (configuration not stated)
- IC50 [9]: 0.564 µM (active)
- IC50 [10]: 0.564 µM (active)

Compound: N#CC(c1ccsc1)c1c(Cl)cnn(Cc2cccc3ccccc23)c1=O (configuration not stated)
- IC50 [7]: 0.325 µM (active)
- IC50 [8]: 0.794 µM (active)

Compound: N#CC(C#N)c1c(Cl)cnn(Cc2cccc3ccccc23)c1=O
- IC50 [9]: 17.4 µM (inactive)
- IC50 [10]: 17.4 µM (inactive)

Compound: Cc1cc(N2CCN(C(=O)Oc3ccc(-n4cccc4)cc3)CC2)c2ccccc2n1
- IC50 [11]: 0.057 µM (active)

Compound: NC(=O)c1cc2ccc(O)cc2o/c1=N\c1ccccc1
- IC50 (Interleukin-8): 6.71 µM (active)

Compound: C/C(=N\Nc1ccc(S(N)(=O)=O)cc1[N+](=O)[O-])c1cccnc1
- IC50 [12]: 155 µM (inactive)

Compound: COc1ccc(/C(C#N)=C/c2cccnc2)cc1
- AC50 [6]: 9.73 µM (active)
- AC50 (HeLa): 254 µM (active)

Compound: CCc1ccc2c(c1)C1(NN=C(c3ccccc3)S1)C(=O)N2 (configuration not stated)
- EC50 [13]: 49.4 µM (active)
- EC50 [14]: 0.278 µM (active)
- CC50 (Vero [4]): 7.61 µM (active)
- EC50 (Streptococcus): 1.84 µM (active)
- EC50 (BJ [15]): 86.3 µM (active)
- IC50 [16]: > 66 µM (inactive)
- IC50 [17]: > 66 µM (inactive)
- EC50 [18]: 0.524 µM (active)
- IC50 (Nonstructural protein 1): 45.5 µM (active)
- EC50 (BJ [19]): 17.7 µM (inconclusive)
- EC50 [20]: 5.31 µM (active)
- CC50 (Vero [21]): 14.9 µM (active)
- EC50 (BJ [22]): 13.7 µM (inconclusive)

Compound: O=C1c2ccccc2-c2cccc3cccc1c23 [BENZANTHRONE]
- EC50 [23]: > 91.2 µM (inactive)
- EC50 [24]: > 91.2 µM (inactive)
- IC50 [16]: > 66 µM (inactive)
- IC50 [17]: 34 µM (inactive)
- IC50 [25]: 41 µM (active)
- AC50 (Cytochrome P450 3A4): 39.8 µM (inconclusive)
